{"source": "paper PMC9487510", "about": "“A Novel Oral GyrB/ParE Dual Binding Inhibitor Effective against Multidrug-Resistant Neisseria gonorrhoeae and Other High-Threat Pathogens” (Antimicrobial Agents and Chemotherapy, 2022)", "key": {"[1]": {"test_system": "N. gonorrhoeae clinical isolates", "assay": "MIC, agar dilution (CLSI)", "assay_type": "cell-based, Neisseria gonorrhoeae", "conditions": "Neisseria gonorrhoeae; for MIC: read-out: MIC"}, "VRSA": {"test_system": "VRSA", "assay": "MIC, in vitro susceptibility testing (CLSI)", "assay_type": "cell-based, Staphylococcus aureus", "conditions": "for MIC: Staphylococcus aureus, VRSA"}, "[2]": {"test_system": "vancomycin-resistant enterococci (VRE)", "assay": "MIC, in vitro susceptibility testing (CLSI)", "assay_type": "cell-based", "conditions": "Enterococcus"}, "[3]": {"test_system": "E. coli, Pseudomonas aeruginosa, Klebsiella pneumoniae, Acinetobacter baumannii, Francisella tularensis, Yersinia pestis", "assay": "organism not typed", "assay_type": "cell-based"}, "[4]": {"assay": "Kinetic aqueous solubility", "assay_type": "physicochemical", "conditions": "aqueous medium (not further specified)"}, "[5]": {"assay": "Liver microsome stability, mouse", "assay_type": "in vitro ADME", "conditions": "male, CD-1, mouse, liver microsomes, pH 7.4", "description": "Liver microsome stability assays were performed by BioDuro Inc. Human and mouse (CD-1 male) liver microsomes were used. […] Next, 50 μL of reaction buffer was added to solution and mixed via pipetting up and down 6 times. At each time point of 0, 30, and 60 min, an aliquot of 20 μL was removed from each tube. Liver microsomes (LM) working solution was prepared in 0.05 M phosphate reaction buffer (pH = 7.4) to a final concentration of 1.27 mg/mL. NADPH solution was prepared in 0.05 M phosphate buffer to afford a 5 mM buffer solution. […] After vortexing and incubating for 5 min (37°C), 50 μL of NADPH solution was added and mixed via pipetting. At each time point of 0, 5, 15, 30, and 60 min, an aliquot of 20 μL was removed from each tube. Next, 250 μL of quenching solution was aliquoted to quench the reaction, which was then vortexed for 1 min and placed on ice for 40 min. After centrifugation at 4,000 × g for 15 min, 100 μL of supernatant was transferred using a multichannel pipette to 0.65-mL tubes. Samples were diluted with MeOH: H2O (1:1) as necessary. Samples were analyzed by high-pressure liquid chromatography coupled to tandem mass spectrometry (LC/MS/MS) performed on a Sciex Applied Biosystems Qtrap 4000 triple-quadrupole mass spectrometer coupled to a Shimadzu HPLC system to quantify the remaining compound. Data were processed using Analyst software (version 1.4.2; Applied Biosystems Sciex). […] Metabolite identification on the microsomal extracts was performed using a Q-Exactive HRMS coupled with an Ultimate 3000 HPLC system and a Kinetix C18 2.1 × 50-mm 2.6-μm HPLC column."}, "Neisseria": {"test_system": "Neisseria", "assay_type": "cell-based, N. gonorrhoeae", "conditions": "at 1× MIC; resistance not observed; data not shown"}, "MRSA": {"test_system": "MRSA", "assay_type": "cell-based, S. aureus", "conditions": "at 1× MIC; resistance not observed; data not shown"}}, "note": "Where two headings read alike, the source gives them in different places.", "data": [{"smiles": "CNc1cc(F)cc2c1[nH]c1nc(Oc3cnc(C)nc3)nc(N3CCC4(CC3)CO[C@@H](CO)C4)c12", "note": "[JSF-2414]", "values": [{"measurement": "MIC", "setting": "[1]; strain CDC62 (GCREF2013 007)", "result": 16, "unit": "ng/mL"}, {"measurement": "MIC", "setting": "[1]; strain CDC63 (GCREF2013 008)", "result": 7.8, "unit": "ng/mL"}, {"measurement": "MIC", "setting": "[1]; strain CDC64 (GCREF2013 009)", "result": 16, "unit": "ng/mL"}, {"measurement": "MIC", "setting": "[1]; strain CDC65 (GCREF2013 010)", "result": 7.8, "unit": "ng/mL"}, {"measurement": "MIC", "setting": "[1]; strain CDC66 (GCREF2013 011)", "result": 16, "unit": "ng/mL"}, {"measurement": "MIC", "setting": "[1]; strain CDC67 (GCREF2013 014)", "result": 7.8, "unit": "ng/mL"}, {"measurement": "MIC", "setting": "[1]; strain CDC68 (GCREF2013 016)", "result": 2, "unit": "ng/mL"}, {"measurement": "MIC", "setting": "[1]; strain CDC69 (GCREF2013 017)", "result": 2, "unit": "ng/mL"}, {"measurement": "MIC", "setting": "[1]; strain CDC70 (GCREF2013 018)", "result": 3.9, "unit": "ng/mL"}, {"measurement": "MIC", "setting": "[1]; strain CDC71 (GCREF2013 019)", "result": 16, "unit": "ng/mL"}, {"measurement": "MIC", "setting": "[1]; strain CDC72 (GCREF2013 020)", "result": 7.8, "unit": "ng/mL"}, {"measurement": "MIC", "setting": "[1]; strain CDC73 (GCREF2013 021)", "result": 16, "unit": "ng/mL"}, {"measurement": "MIC", "setting": "[1]; strain CDC74 (GCREF2013 022)", "result": 16, "unit": "ng/mL"}, {"measurement": "MIC", "setting": "[1]; strain CDC75 (GCREF2013 023)", "result": 7.8, "unit": "ng/mL"}, {"measurement": "MIC", "setting": "[1]; strain CDC76 (GCREF2013 024)", "result": 7.8, "unit": "ng/mL"}, {"measurement": "MIC", "setting": "[1]; strain CDC77 (GCREF2013 025)", "result": 7.8, "unit": "ng/mL"}, {"measurement": "MIC", "setting": "[1]; strain CDC78 (GCREF2013 026)", "result": 0.5, "unit": "ng/mL"}, {"measurement": "MIC", "setting": "[1]; strain CDC79 (GCREF2013 027)", "result": 3.9, "unit": "ng/mL"}, {"measurement": "MIC", "setting": "[1]; strain CDC80 (GCREF2013 028)", "result": 3.9, "unit": "ng/mL"}, {"measurement": "MIC", "setting": "[1]; strain CDC81 (GCREF2013 029)", "result": 3.9, "unit": "ng/mL"}, {"measurement": "MIC", "setting": "[1]; strain CDC82 (GCREF2013 031)", "result": 7.8, "unit": "ng/mL"}, {"measurement": "MIC", "setting": "[1]; strain CDC83 (GCREF2013 032)", "result": 16, "unit": "ng/mL"}, {"measurement": "MIC", "setting": "[1]; strain CDC84 (GCREF2013 033)", "result": 7.8, "unit": "ng/mL"}, {"measurement": "MIC", "setting": "[1]; strain CDC86 (GCREF2013 035)", "result": 7.8, "unit": "ng/mL"}, {"measurement": "MIC", "setting": "[1]; strain CDC87 (GCREF2013 036)", "result": 3.9, "unit": "ng/mL"}, {"measurement": "MIC", "setting": "[1]; strain CDC88 (GCREF2013 037)", "result": 7.8, "unit": "ng/mL"}, {"measurement": "MIC", "setting": "[1]; strain CDC89 (GCREF2013 038)", "result": 3.9, "unit": "ng/mL"}, {"measurement": "MIC", "setting": "[1]; strain CDC90 (GCREF2013 039)", "result": 7.8, "unit": "ng/mL"}, {"measurement": "MIC", "setting": "[1]; strain CDC91 (GCREF2013 040)", "result": 7.8, "unit": "ng/mL"}, {"measurement": "MIC", "setting": "[1]; strain CDC92 (GCREF2013 041)", "result": 3.9, "unit": "ng/mL"}, {"measurement": "MIC", "setting": "[1]; strain CDC93 (GCREF2013 042)", "result": 3.9, "unit": "ng/mL"}, {"measurement": "MIC", "setting": "[1]; strain CDC94 (GCREF2013 043)", "result": 7.8, "unit": "ng/mL"}, {"measurement": "MIC", "setting": "[1]; strain CDC95 (GCREF2013 045)", "result": 7.8, "unit": "ng/mL"}, {"measurement": "MIC", "setting": "[1]; strain CDC96 (GCREF2013 046)", "result": 2, "unit": "ng/mL"}, {"measurement": "MIC", "setting": "[1]; strain CDC97 (GCREF2013 047)", "result": 3.9, "unit": "ng/mL"}, {"measurement": "MIC", "setting": "[1]; strain CDC98 (GCREF2013 048)", "result": 7.8, "unit": "ng/mL"}, {"measurement": "MIC", "setting": "[1]; strain CDC99 (GCREF2013 012)", "result": 7.8, "unit": "ng/mL"}, {"measurement": "MIC", "setting": "[1]; strain CDC100 (GCREF2013 015)", "result": 3.9, "unit": "ng/mL"}, {"measurement": "MIC50", "setting": "[1]; 96 clinical isolates, read-out: MIC50", "result": 3.9, "unit": "ng/mL"}, {"measurement": "MIC90", "setting": "[1]; 96 clinical isolates, read-out: MIC90", "result": 7.8, "unit": "ng/mL"}, {"measurement": "MIC range", "setting": "VRSA; N = 7 (Van: 9)", "result": "15.6 to 31", "unit": "ng/mL"}, {"measurement": "MIC", "setting": "VRSA; strain 2 25 23", "result": 16, "unit": "ng/mL"}, {"measurement": "MIC", "setting": "VRSA; strain 2 25 24", "result": "16 to 31", "unit": "ng/mL"}, {"measurement": "MIC", "setting": "VRSA; strain 2 25 25", "result": "16 to 31", "unit": "ng/mL"}, {"measurement": "MIC", "setting": "VRSA; strain 2 25 26", "result": "15.6 to 31", "unit": "ng/mL"}, {"measurement": "MIC", "setting": "VRSA; strain 2 25 27", "result": 31, "unit": "ng/mL"}, {"measurement": "MIC", "setting": "VRSA; strain 2 25 28", "result": "15.6 to 31", "unit": "ng/mL"}, {"measurement": "MIC", "setting": "VRSA; strain VRS2 (VRS-2)", "result": 31, "unit": "ng/mL"}, {"measurement": "MIC", "setting": "[2]; strain 2138", "result": "> 500", "unit": "ng/mL"}, {"measurement": "MIC", "setting": "[2]; strain 2139", "result": 2, "unit": "ng/mL"}, {"measurement": "MIC", "setting": "[2]; strain 2927", "result": 8, "unit": "ng/mL"}, {"measurement": "MIC", "setting": "[2]; strain 2966", "result": 4, "unit": "ng/mL"}, {"measurement": "MIC", "setting": "[2]; strain 2967", "result": 31, "unit": "ng/mL"}, {"measurement": "MIC", "setting": "[2]; strain 3090", "result": "> 500", "unit": "ng/mL"}, {"measurement": "MIC", "setting": "[2]; strain 3091", "result": 2, "unit": "ng/mL"}, {"measurement": "MIC", "setting": "[2]; strain 3322", "result": 16, "unit": "ng/mL"}, {"measurement": "MIC", "setting": "[3]", "result": "> 500", "unit": "ng/mL"}, {"measurement": "solubility kinetic", "setting": "[4]", "result": 0.576, "unit": "µM"}, {"measurement": "microsomal CLint at 1 μM", "setting": "[5]; read-out: MLM Clint", "result": 11.9, "unit": "µL/min/mg"}, {"measurement": "half-life at 1 μM", "setting": "[5]; read-out: MLM t1/2", "result": 58.2, "unit": "min"}, {"measurement": "spontaneous resistance frequency", "setting": "Neisseria", "result": "< 7.5 × 10^−4"}, {"measurement": "spontaneous resistance frequency", "setting": "MRSA", "result": "< 5.0 × 10^−9"}]}]}
